Consider two molecules from US3985790A, “Phenoxyalkane carboxylic acid derivative” (priority 1974, dated 1976).

Usually LD50 stands for the dose at which mortality reaches 50%. Low readings indicate greater toxicity, high ones lower toxicity.

Molecules are shown by their SMILES. Read-outs that look alike come from different tables or passages of the source.

Data set [1] is described as follows: Acute toxicity (LD50). Particulars: mouse, in vivo.
Data set [2] has as its system serum cholesterol and serum triglyceride levels. It is filed as in vivo, SPF-Wistar rats. The note with it: 14 days. An excerpt:
(§1) The therapeutic effectiveness of the salt of this invention ("clofibrinate") was compared with that of the fundamental parent substance, namely the 4-(p-chlorophenoxyacetylamino)-benzoic acid diethylaminoethyl ester, as well as clofibrate, that is the ethyl ester of clofibrinic acid, using SPF-Wistar rats. In these tests the compound in a vehicle was supplied orally for a period of 14 days. Twenty-four hours after the last dose blood analyses were made for determining the serum cholesterol and serum triglyceride levels.
In a first series of experiments, the effectiveness was studied in rats having normal blood lipid levels which were made hyperlipemic by means of a special fatty diet 1. This cholesterol-rich fatty diet 1 corresponded to that of Berger et al., Proc. Soc. Ex. Biol. (1969) 132,293.

Data set [3] has the same test system. Nature of the data set: Antilipemic effect in young male rats, fatty diet 2 (high cholesterol-high fat), 14 days oral. It is filed as in vivo, SPF-Wistar rats. Particulars: fatty diet 2, 250 mg/kg oral. The text has this: In these tests the compound in a vehicle was supplied orally for a period of 14 days. Twenty-four hours after the last dose blood analyses were made for determining the serum cholesterol and serum triglyceride levels. In a second series young male rats of 80-90 grams weight were fed a fat and cholesterol-rich diet (fatty diet 2). The statistical significance (p) of the results is also given.

In data set [4] the test system is blood serum cholesterol and lipid levels. Briefly: Effect on blood serum cholesterol and lipid levels, tolerability and toxicity, general statements. It is filed as in vivo, SPF-Wistar rats. Particulars: hyperlipemic conditions.
From the text: as §1
In a first series of experiments, the effectiveness was studied in rats having normal blood lipid levels which were made hyperlipemic by means of a special fatty diet 1. This cholesterol-rich fatty diet 1 corresponded to that of Berger et al., Proc. Soc.
In a second series young male rats of 80-90 grams weight were fed a fat and cholesterol-rich diet (fatty diet 2). The statistical significance (p) of the results is also given.

Data set [5] deals with human lipid metabolism. Particulars: French Pat. No. 1,552,793; cited from earlier work.
The mark [6] stands for this setting: fatty diet 1, 1000 mg/kg oral, 3 of 10 animals died.

In turn, `CCOC(=O)C(C)(C)Oc1ccc(Cl)cc1` [Clofibrate, ethyl-2-(p-chlorophenoxy)-isobutyrate] returned a median lethal dose (LD50) in data set [1] of 1150 mg/kg. In addition, in data set [2] (fatty diet 1, 250 mg/kg oral), the Decrease of cholesterol is listed as 3.0%, the Decrease of triglycerides was determined as 12.5%, the “Final Value Cholest.” value is recorded as 347.9 mg% and the “Final Value Triglycerides” value stood at 75.6. In data set [2] (setting [6]), the Decrease of cholesterol is listed as 31.6%, the “Final Value Cholest.” value is reported as 245.4 mg% and the “Final Value Triglycerides” value was found to be 120.3. Also, in data set [3], the Decrease of triglycerides is recorded as 20.6%, the “Final Value Cholest.” value is listed as 133.3 mg % and the “Final Value Triglycerides” value is 107.7. For the same molecule, in data set [4], the “effectiveness against elevated cholesterol and elevated triglyceride levels” value is reported as “only slightly effective under hyperlipemic conditions or even fails completely”.
With `CCN(CC)CCOC(=O)c1ccc(NC(=O)COc2ccc(Cl)cc2)cc1` [Parent Compound, 4-(p-chlorophenoxyacetylamino)-benzoic acid diethylaminoethyl ester], in data set [2] (fatty diet 1, 100 mg/kg oral), the Decrease of cholesterol amounted to 7.8%, the “Final Value Cholest.” value stood at 330.6 mg% and the “Final Value Triglycerides” value is listed as 114.9. In data set [2] (fatty diet 1, 250 mg/kg oral), the Decrease of cholesterol is 24.9%, the “Final Value Cholest.” value is listed as 269.4 mg% and the “Final Value Triglycerides” value is listed as 101.6. Moreover, the “influence on human lipid metabolism” value in data set [5] was “have an influence on human lipid metabolism”.
